Source: patent publication US20250171821A1, “HIF-1 ACTIVATORS AND USES THEREOF” (Ramot at Tel-Aviv University Ltd., priority 2022, published 2025)
“Also recorded” adds a separate entry of the source.

Assays:
[1] = tested on: MG-63 osteoblasts; test: Collagen-I immunofluorescence in MG-63 osteoblasts treated with ML228; format: cell-based, human
Experimental: (§1) MG-63 human osteosarcoma cell lines were obtained from the American Type Culture Collection (ATCC, Manassas, VA, USA). Cells were cultured in α-MEM supplemented with 10% FCS, 100 U/ml penicillin, and […] streptomycin at 37° C. in a humidified atmosphere incubator containing 5% CO2. Before treatment with ML228, 5,000 and 50,000 cells/well were seeded in a 96 or 24 well-plate, respectively.
Cells were cultured to sub-confluence on a 96-well plate culture plate or on round-glass cover slips in a 24 well plate and incubated with ML228 at 37° C. in 5% CO2 for 24-96 hours. […] Fluorescence readouts were obtained with excitation/emission (ex/em) of 495/519 nanometer (nm; green) and 340/488 nm (blue) (for FIGS. 2B and 2D); or with ex/em of 358/461 nm (blue), 495/519 nm (green) and 652/668 nm (red) (for FIG. 5A).
All images were analyzed with the computer-based image analysis system (Image J) using the Fiji 2 software (National Institute of Health). Equal field areas were selected for analysis and quantification of fluorescence signals. Quantification of fluorescence signal intensity measured by color threshold and normalized against β-tubulin intensity. Total collagen was evaluated by total fluorescence area intensity.
The effect of ML228 (chemical structure thereof is depicted in FIG. 1), a known activator of HIF, on fibroblasts and osteoblasts was analyzed. […]

[2] = tested on: osteoblasts; test: Cell-Titer assay of cellular ATP levels, osteoblasts; format: cell-based; settings: 48 hours
Experimental: as §1
(§2) The live/dead viability assay (cat #04511-1KT-F Merck, Germany) was used according to the manufacturer's protocol. Briefly, cells were incubated in a medium supplemented with the indicated concentrations of ML228 for 48 hours. Fluorescein diacetate (6.6 μg/mL) and propidium iodide (5 μg/mL) (Merck, NJ, USA) were prepared in DMEM and added to the cells. Confocal images were captured after addition of the dyes with ZEISS LSM 900, Laser Scanning Microscope. Fluorescence readouts were obtained with ex/em of 490/515 nm and 535/617 nm for green and red, respectively. Cellular ATP levels were quantified using the cell-titer assay (Promega, WI, USA cat #G7570).

[3] = tested on: fibroblast cells; test: live/dead viability assay, fibroblasts; format: cell-based; settings: ML228 0.62 and 5 μM, 48 hours
Experimental: as §2

[4] = tested on: MG-63 cells; test: live/dead viability assay, osteoblasts; format: cell-based; settings: MG-63 osteoblasts, ML228 0.62 and 5 μM, 48 hours
Experimental: as §2

[5] = tested on: NIH/3T3 cell line; test: Cell confluence / number of cells per image in NIH/3T3 cells; format: cell-based, mouse; settings: 0.63-5 μM ML228, 48 hours, p<0.0001
Experimental: (§3) Embryonic mouse fibroblast NIH/3T3 cell line (ATCC) were seeded at a concentration of 50*10^3 cells/well on 96 well glass bottom plate (P96-1.5H-N, Cellvis) for the immunofluorescence experiment and on cell culture microplate, 96 well, PS, F-Bottom (655090, greiner) for the viability experiment. The cells were cultured with Dulbecco's modified Eagle's medium (DMEM) supplemented with 10% fetal calf serum, 1% Penicillin-Streptomycin solution and 1% L-glutamine (All purchased from Rhenium). At 24 hours post seeding, cells were treated for another 48 hours by replacing them with the cell medium supplemented with a serial dilution (5-0.02 μM, factor dilution of 2) of the ML228, Daprodustat, Enarodustat, Molidustat, Vadadustat or Roxadustat molecules dissolved in DMSO. The final DMSO concentration in the cell medium was 0.01%. Cells were maintained in an incubator at 37° C. in a humidified atmosphere containing 5% CO2.
Image acquisition and quantification were performed by Incucyte SX5 (Sartorius) using software version 2022B Rev2. A standard scan was done for 9 images per well using 20× objective, 2 optical modules (green at excitation/emission of 453-485 nm/494-533 nm in 300 msec acquisition time, and near-IR at excitation/emission of 648-674 nm/685-756 nm in 400 msec acquisition time, including Phase channel) following immunofluorescence protocol. For the image analysis, 2-6 replicates per condition were used. Using the Basic Analyzer mode, “Phase Object Confluence (%)” was acquired using the Phase channel. This measurement is the percentage of the image area occupied by cells. “Total Collagen-I Integrated Intensity Per Image (GCU×μm^2/Image)” was acquired using the green optical module. GCU stands for Green calibrated Unit, while this measurement is the total sum of the Collagen-I objects' fluorescent intensity in the image. “#Cells (Per image)” was acquired by the near-IR optical module. This measurement was calculated by counting the number of nuclei per image.
Multiple comparisons were performed by ordinary one-way ANOVA followed by Dunnett's post-hoc statistical hypothesis for comparing each condition mean to the control mean. Statistical analysis was done using GraphPad Prism version 10.0.0 for Windows, GraphPad Software, Boston, Massachusetts USA, worldwideweb(dot)graphpad(dot)com. For statistical analysis, significance was set as (*) p≤0.05; (**) p≤0.01; (***) p≤0.001; (****) p≤0.0001 and (ns; not significant) p>0.05.

[6] = tested on: NIH/3T3 cell line; test: Alamar blue viability assay in NIH/3T3 cells; format: cell-based, mouse; settings: 0.31-5 μM ML228, 48 hours, p<0.0001
Experimental: as §3, with “Cells were maintained in an incubator at 37° C. in a humidified atmosphere containing 5% CO2.” left out
For the ML228 experiment, at 48 hours post treatment, cells were stained by replacing the cell medium with Alamar blue (Enco, Petach Tikvah, Israel) diluted 1:10 in the cell medium, and incubated for 4 hours (37° C., 5% CO2). Then, fluorescence readouts were obtained using the Spark multimode microplate reader (Tecan) at excitation/emission 540±20 nm/590±20 nm. Cell viability was calculated as the percentage difference of treated cells with ML228 relative to the control cells at 590±20 nm emission.

SMILES: c1ccc(-c2ccc(CNc3nc(-c4ccccn4)nnc3-c3ccccc3)cc2)cc1 [ML228, N-([1,1′-Biphenyl]-4-ylmethyl)-6-phenyl-3-(2-pyridinyl)-1,2,4-triazin-5-amine]
- concentration of maximum enhancement of Collagen-I ([1]; MG-63, 48 hours, normalized to cell number (DAPI), FIG. 9B): 5 µM
- increase in collagen levels compared to non-treated cells ([1]; osteoblasts (MG-63), variable ML228 concentrations, 48 hours): more than a three-fold increase; also recorded: increased
- IC50 ([2]; Homo sapiens, Osteoblast, read-out: IC50 (ATP levels relative to non-treated cells)): 567 nM
- metabolically active cell viability as measured by ATP levels ([2]; increasing ML228 concentrations): decrease in metabolically active cell viability
- cell death / cellular toxicity (live/dead assay) [3]: without imparting cellular toxicity; also recorded: without imparting cellular death; also recorded: not an increase in cell death
- cell death / cellular toxicity (live/dead assay) [4]: without imparting cellular toxicity; also recorded: Almost no dead cells were observed; also recorded: not an increase in cell death
- cell confluence vs untreated cells [5]: significant reduction
- viability compared to untreated cells [6]: lower viability
